#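 Assay format: 96-well plates, 48-hour exposure. GI50 is the concentration that inhibits growth by half. TGI: total growth inhibition.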
# Assays:
# Assay in all cases: NCI tumour cell line growth inhibition, 48 h
# U251 CNS = tested on: U251 CNS
# HOP-62 NSCLC = tested on: HOP-62 NSCLC
# UACC-62 melanoma = tested on: UACC-62 melanoma
# RPMI-8226 leukemia = tested on: RPMI-8226 leukemia
# SNB-75 CNS = tested on: SNB-75 CNS
# K-562 leukemia = tested on: K-562 leukemia
# MDA-MB-231 breast = tested on: MDA-MB-231 breast
# MDA-MB-435 = tested on: MDA-MB-435
# NCI/ADR-RES ovarian = tested on: NCI/ADR-RES ovarian
# EKVX NSCLC = tested on: EKVX NSCLC
# SK-MEL-28 melanoma = tested on: SK-MEL-28 melanoma
# HCT-116 colon = tested on: HCT-116 colon
# HCC-2998 colon = tested on: HCC-2998 colon
# HCT-15 colon = tested on: HCT-15 colon
# IGROV1 ovarian = tested on: IGROV1 ovarian
# NCI-H226 lung = tested on: NCI-H226 lung
# HT29 colon = tested on: HT29 colon
# SNB-19 CNS = tested on: SNB-19 CNS
# SW-620 colon = tested on: SW-620 colon
# PC-3 prostate = tested on: PC-3 prostate
# MCF7 breast = tested on: MCF7 breast
# T-47D breast = tested on: T-47D breast
# 786-0 renal = tested on: 786-0 renal
# SN12C renal = tested on: SN12C renal
# A549 NSCLC = tested on: A549 NSCLC
# NCI-H522 lung = tested on: NCI-H522 lung
# DU-145 prostate = tested on: DU-145 prostate
# MALME-3M melanoma = tested on: MALME-3M melanoma
# BT-549 breast = tested on: BT-549 breast
# MOLT-4 leukemia = tested on: MOLT-4 leukemia
# KM12 colon = tested on: KM12 colon
# NCI-H23 lung = tested on: NCI-H23 lung
# UO-31 renal = tested on: UO-31 renal
# HOP-92 NSCLC = tested on: HOP-92 NSCLC
# OVCAR-8 ovarian = tested on: OVCAR-8 ovarian
# NCI-H460 lung = tested on: NCI-H460 lung
# SK-MEL-5 melanoma = tested on: SK-MEL-5 melanoma
# OVCAR-5 ovarian = tested on: OVCAR-5 ovarian
# OVCAR-3 ovarian = tested on: OVCAR-3 ovarian
# CAKI-1 renal = tested on: CAKI-1 renal
# HS 578T breast = tested on: HS 578T breast
# SK-OV-3 ovarian = tested on: SK-OV-3 ovarian
# COLO 205 colon = tested on: COLO 205 colon
# OVCAR-4 ovarian = tested on: OVCAR-4 ovarian
# SF-539 CNS = tested on: SF-539 CNS
# TK-10 renal = tested on: TK-10 renal
# UACC-257 melanoma = tested on: UACC-257 melanoma
# RXF 393 renal = tested on: RXF 393 renal
# LOX IMVI melanoma = tested on: LOX IMVI melanoma
# HL-60(TB) leukemia = tested on: HL-60(TB) leukemia
# SF-295 CNS = tested on: SF-295 CNS
# M14 melanoma = tested on: M14 melanoma
# SF-268 CNS = tested on: SF-268 CNS
# CCRF-CEM leukemia = tested on: CCRF-CEM leukemia
# ACHN renal = tested on: ACHN renal
compound,measurement,setting,value
Cc1n[nH]c(=S)n1/N=C/c1ccc(F)c(Oc2ccccc2)c1,GI50,U251 CNS,50.3 µM
same,TGI,U251 CNS,> 100 µM
same,GI50,HOP-62 NSCLC,49.4 µM
same,TGI,HOP-62 NSCLC,> 100 µM
same,GI50,UACC-62 melanoma,52.4 µM
same,TGI,UACC-62 melanoma,> 100 µM
same,GI50,RPMI-8226 leukemia,42.7 µM
same,TGI,RPMI-8226 leukemia,> 100 µM
same,GI50,SNB-75 CNS,45.1 µM
same,TGI,SNB-75 CNS,> 100 µM
same,GI50,K-562 leukemia,54.5 µM
same,TGI,K-562 leukemia,> 100 µM
same,GI50,MDA-MB-231 breast,41.2 µM
same,TGI,MDA-MB-231 breast,> 100 µM
same,GI50,MDA-MB-435,28.6 µM
same,TGI,MDA-MB-435,77.1 µM
same,GI50,NCI/ADR-RES ovarian,33.2 µM
same,TGI,NCI/ADR-RES ovarian,> 100 µM
same,GI50,EKVX NSCLC,32.8 µM
same,TGI,EKVX NSCLC,99.4 µM
same,GI50,SK-MEL-28 melanoma,7.1 µM
same,TGI,SK-MEL-28 melanoma,82.6 µM
same,GI50,HCT-116 colon,36 µM
same,TGI,HCT-116 colon,> 100 µM
same,GI50,HCC-2998 colon,69.5 µM
same,TGI,HCC-2998 colon,> 100 µM
same,GI50,HCT-15 colon,49.7 µM
same,TGI,HCT-15 colon,> 100 µM
same,GI50,IGROV1 ovarian,62.3 µM
same,TGI,IGROV1 ovarian,> 100 µM
same,GI50,NCI-H226 lung,> 100 µM
same,TGI,NCI-H226 lung,> 100 µM
same,GI50,HT29 colon,27.5 µM
same,TGI,HT29 colon,> 100 µM
same,GI50,SNB-19 CNS,55.9 µM
same,TGI,SNB-19 CNS,> 100 µM
same,GI50,SW-620 colon,36.5 µM
same,TGI,SW-620 colon,> 100 µM
same,GI50,PC-3 prostate,79.6 µM
same,TGI,PC-3 prostate,> 100 µM
same,GI50,MCF7 breast,41.4 µM
same,TGI,MCF7 breast,> 100 µM
same,GI50,T-47D breast,> 100 µM
same,TGI,T-47D breast,> 100 µM
same,GI50,786-0 renal,42.3 µM
same,TGI,786-0 renal,> 100 µM
same,GI50,SN12C renal,95.6 µM
same,TGI,SN12C renal,> 100 µM
same,GI50,A549 NSCLC,42.2 µM
same,TGI,A549 NSCLC,> 100 µM
same,GI50,NCI-H522 lung,48.2 µM
same,TGI,NCI-H522 lung,> 100 µM
same,GI50,DU-145 prostate,49.5 µM
same,TGI,DU-145 prostate,> 100 µM
same,GI50,MALME-3M melanoma,65.7 µM
same,TGI,MALME-3M melanoma,> 100 µM
same,GI50,BT-549 breast,63.7 µM
same,TGI,BT-549 breast,> 100 µM
same,GI50,MOLT-4 leukemia,47.6 µM
same,TGI,MOLT-4 leukemia,> 100 µM
same,GI50,KM12 colon,41.3 µM
same,TGI,KM12 colon,> 100 µM
same,GI50,NCI-H23 lung,42.2 µM
same,TGI,NCI-H23 lung,> 100 µM
same,GI50,UO-31 renal,50 µM
same,TGI,UO-31 renal,> 100 µM
same,GI50,HOP-92 NSCLC,63.3 µM
same,TGI,HOP-92 NSCLC,> 100 µM
same,GI50,OVCAR-8 ovarian,35.7 µM
same,TGI,OVCAR-8 ovarian,> 100 µM
same,GI50,NCI-H460 lung,39 µM
same,TGI,NCI-H460 lung,> 100 µM
same,GI50,SK-MEL-5 melanoma,16.1 µM
same,TGI,SK-MEL-5 melanoma,33.4 µM
same,GI50,OVCAR-5 ovarian,> 100 µM
same,TGI,OVCAR-5 ovarian,> 100 µM
same,GI50,OVCAR-3 ovarian,44.6 µM
same,TGI,OVCAR-3 ovarian,> 100 µM
same,GI50,CAKI-1 renal,0.496 µM
same,TGI,CAKI-1 renal,0.944 µM
same,GI50,HS 578T breast,33.2 µM
same,TGI,HS 578T breast,> 100 µM
same,GI50,SK-OV-3 ovarian,> 100 µM
same,TGI,SK-OV-3 ovarian,> 100 µM
same,GI50,COLO 205 colon,68.1 µM
same,TGI,COLO 205 colon,> 100 µM
same,GI50,OVCAR-4 ovarian,44.9 µM
same,TGI,OVCAR-4 ovarian,> 100 µM
same,GI50,SF-539 CNS,27.7 µM
same,TGI,SF-539 CNS,65.1 µM
same,GI50,TK-10 renal,43.9 µM
same,TGI,TK-10 renal,> 100 µM
same,GI50,UACC-257 melanoma,25.4 µM
same,TGI,UACC-257 melanoma,75.3 µM
same,GI50,RXF 393 renal,> 100 µM
same,TGI,RXF 393 renal,> 100 µM
same,GI50,LOX IMVI melanoma,51.1 µM
same,TGI,LOX IMVI melanoma,> 100 µM
same,GI50,HL-60(TB) leukemia,48.6 µM
same,TGI,HL-60(TB) leukemia,> 100 µM
same,GI50,SF-295 CNS,57.8 µM
same,TGI,SF-295 CNS,> 100 µM
same,GI50,M14 melanoma,36.9 µM
same,TGI,M14 melanoma,> 100 µM
same,GI50,SF-268 CNS,28.4 µM
same,TGI,SF-268 CNS,> 100 µM
same,GI50,CCRF-CEM leukemia,40.5 µM
same,TGI,CCRF-CEM leukemia,> 100 µM
same,GI50,ACHN renal,> 100 µM
same,TGI,ACHN renal,> 100 µM

# — PubChem BioAssay (NCI)
